# Target: CXCR3 (Macaca fascicularis, UniProt A0A2K5UV19)
# Assay: functional cellular assay measuring calcium flux in CXCR3 transfected cells (block of CXCR3/IP-10 interaction)
# Assay type: cell-based, Cyno
# Conditions: IP-10 induced intracellular calcium flux; Cyno-CHO cells stably expressing recombinant CXCR3 and G-alpha-16; IP-10 at EC80; read-out: IC50
# How it was run: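 Cyno-CHO cells stably expressing CXCR3 and G-alpha-16, loaded with Ca-4 dye in HBSS/10 mM HEPES pH 7.4 with 2 mM probenecid for 1 h at 37° C. Compound (final 10 microM) preincubated 15 min at room temperature, then IP-10 at EC80 added; calcium flux read at 480/540 nm.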
# Sequence of CXCR3 (A0A2K5UV19 entry or part of it): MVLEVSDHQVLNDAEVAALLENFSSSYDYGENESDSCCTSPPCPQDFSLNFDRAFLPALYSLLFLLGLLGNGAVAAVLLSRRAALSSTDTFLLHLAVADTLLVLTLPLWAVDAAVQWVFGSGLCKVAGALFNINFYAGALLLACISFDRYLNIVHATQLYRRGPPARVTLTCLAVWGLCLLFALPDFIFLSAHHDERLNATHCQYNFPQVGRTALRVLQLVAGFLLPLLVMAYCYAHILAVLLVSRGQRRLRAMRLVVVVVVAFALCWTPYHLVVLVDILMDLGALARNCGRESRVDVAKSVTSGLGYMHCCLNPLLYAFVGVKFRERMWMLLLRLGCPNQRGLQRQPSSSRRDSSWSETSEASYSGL
row,IC50,Structure (SMILES)
1,14 nM,"CC(C)C(=O)N(C)CC(=O)N1CCN(c2ccc(F)cc2C(=O)Nc2nc3c(s2)CN(C)CC3)C[C@@H]1C [5-fluoro-2-{(3S)-3-methyl-4-[N-methyl-N-(2-methylpropanoyl)glycyl]piperazin-1-yl}-N-(5-methyl-4,5,6,7-tetrahydro[1,3]thiazolo[5,4-c]pyridin-2-yl)benzamide]"
2,36 nM,"CSc1ncc(-c2cc(C#N)ccc2N2CCN(C(=O)Cn3nc(C)cc3C)CC2)cn1 [4-{4-[2-(3,5-Dimethyl-pyrazol-1-yl)-acetyl]-piperazin-1-yl}-3-(2-methylsulfanyl-pyrimidin-5-yl)-benzonitrile]"
3,11 nM,"COc1ncc(-c2ccccc2N2CCN(C(=O)Cn3c(=O)n(C)c4ccccc43)CC2)cn1 [1-(2-{4-[2-(2-Methoxy-pyrimidin-5-yl)-phenyl]-piperazin-1-yl}-2-oxo-ethyl)-3-methyl-1,3-dihydro-benzoimidazol-2-one]"
4,8 nM,"Cc1cc(C)n(CC(=O)N2CCN(c3ccccc3-c3cnc(N4CCCC(F)C4)nc3)CC2)n1 (stereo not drawn) [2-(3,5-Dimethyl-pyrazol-1-yl)-1-(4-{2-[2-(3-fluoro-piperidin-1-yl)-pyrimidin-5-yl]-phenyl}-piperazin-1-yl)-ethanone]"
5,67 nM,"CS(=O)(=O)c1ncc(-c2cc(F)ccc2N2CCN(C(=O)Cn3ccc4cccnc43)CC2)cn1 [1-(4-{4-fluoro-2-[2-(methylsulfonyl)pyrimidin-5-yl]phenyl}piperazin-1-yl)-2-(1H-pyrrolo[2,3-b]pyridin-1-yl)ethanone]"
6,174 nM,COc1ncc(-c2cc(F)ccc2N2CCN(C(=O)CN3CCCCC3=O)CC2)cn1 [1-(2-{4-[4-fluoro-2-(2-methoxypyrimidin-5-yl)phenyl]piperazin-1-yl}-2-oxoethyl)piperidin-2-one]
7,17 nM,"C[C@H]1CN(c2ccc(F)cc2C(=O)Nc2nc3c(s2)CN(C)CC3)CCN1C(=O)Cn1ccc2cccnc21 [5-fluoro-2-[(3S)-3-methyl-4-(1H-pyrrolo[2,3-b]pyridin-1-ylacetyl)piperazin-1-yl]-N-(5-methyl-4,5,6,7-tetrahydro[1,3]thiazolo[5,4-c]pyridin-2-yl)benzamide]"
8,31 nM,"O=C(Cn1ccc2cccnc21)N1CCN(c2ccccc2-c2ccc(Cl)nc2)CC1 [1-{4-[2-(6-Chloro-pyridin-3-yl)-phenyl]-piperazin-1-yl}-2-pyrrolo[2,3-b]pyridin-1-yl-ethanone]"
9,7 nM,"COc1ncc(-c2cc(Cl)ccc2N2CCN(C(=O)Cn3ccc4cccnc43)CC2)cn1 [1-{4-[4-Chloro-2-(2-methoxy-pyrimidin-5-yl)-phenyl]-piperazin-1-yl}-2-pyrrolo[2,3-b]pyridin-1-yl-ethanone]"
10,7 nM,"Cc1cc(C)n(CC(=O)N2CCN(c3ccccc3-c3cnc(N4CCCCC4)nc3)CC2)n1 [2-(3,5-Dimethyl-pyrazol-1-yl)-1-{4-[2-(2-piperidin-1-yl-pyrimidin-5-yl)-phenyl]-piperazin-1-yl}-ethanone]"
11,4 nM,"Cc1cc(C)n(CC(=O)N2CCN(c3ccccc3-c3cnc(N4C[C@H]5CC[C@@H]4C5)nc3)CC2)n1 [1-(4-{2-[(1R,4S)-2-(2-Aza-bicyclo[2.2.1]hept-2-yl)-pyrimidin-5-yl]-phenyl}-piperazin-1-yl)-2-(3,5-dimethyl-pyrazol-1-yl)-ethanone]"
12,6 nM,"COc1cc(NC(=O)c2cc(F)ccc2N2CCN(C(=O)Cn3ccc4ccncc43)[C@@H](C)C2)ccn1 [5-fluoro-N-(2-methoxypyridin-4-yl)-2-[(3S)-3-methyl-4-(1H-pyrrolo[2,3-c]pyridin-1-ylacetyl)piperazin-1-yl]benzamide]"
13,6 nM,"O=C(Cn1ccc2cccnc21)N1CCN(c2ccccc2-c2cnc(N3CCOCC3)nc2)CC1 [1-{4-[2-(2-Morpholin-4-yl-pyrimidin-5-yl)-phenyl]-piperazin-1-yl}-2-pyrrolo[2,3-b]pyridin-1-yl-ethanone]"
14,17 nM,"COc1ncc(-c2ccccc2N2CCN(C(=O)CN3Cc4ccccc4C3=O)CC2)cn1 [2-(2-{4-[2-(2-Methoxy-pyrimidin-5-yl)-phenyl]-piperazin-1-yl}-2-oxo-ethyl)-2,3-dihydro-isoindol-1-one]"
15,9 nM,"COc1cc(NC(=O)c2cc(F)ccc2N2CCN(C(=O)Cn3c(=O)[nH]c4ccccc43)[C@@H](C)C2)ccn1 [5-fluoro-N-(2-methoxypyridin-4-yl)-2-{(3S)-3-methyl-4-[(2-oxo-2,3-dihydro-1H-benzimidazol-1-yl)acetyl]piperazin-1-yl}benzamide]"
16,10 nM,"Cc1cc(C)n(CC(=O)N2CCN(c3ccc(F)cc3-c3cnc(N4CCC(S(C)(=O)=O)CC4)nc3)CC2C)n1 (stereo not drawn) [2-(3,5-dimethyl-1H-pyrazol-1-yl)-1-[4-(4-fluoro-2-{2-[4-(methylsulfonyl)piperidin-1-yl]pyrimidin-5-yl}phenyl)-2-methylpiperazin-1-yl]ethanone]"
17,70 nM,"Cc1ccc(-c2ccccc2N2CCN(C(=O)Cn3nc(C)cc3C)CC2)cc1 [2-(3,5-Dimethyl-pyrazol-1-yl)-1-[4-(4′-methyl-biphenyl-2-yl)-piperazin-1-yl]-ethanone]"

row,IC50,Structure (SMILES)
1,11 nM,"COc1cc(NC(=O)c2cc(F)ccc2N2CCN(C(=O)CN(C)C(=O)c3ncoc3C)[C@@H](C)C2)ccn1 [N-{2-[(2S)-4-{4-fluoro-2-[(2-methoxypyridin-4-yl)carbamoyl]phenyl}-2-methylpiperazin-1-yl]-2-oxoethyl}-N,5-dimethyl-1,3-oxazole-4-carboxamide]"
2,11 nM,"O=C(Cn1c(=O)[nH]c2ccccc21)N1CCN(c2ccc(F)cc2-c2cnc(N3CCOCC3)nc2)CC1 [1-[2-(4-{4-fluoro-2-[2-(morpholin-4-yl)pyrimidin-5-yl]phenyl}piperazin-1-yl)-2-oxoethyl]-1,3-dihydro-2H-benzimidazol-2-one]"
3,7 nM,"CC1CN(c2ccc(C(F)(F)F)cc2-c2cnc(N3CCC(S(C)(=O)=O)CC3)nc2)CCN1C(=O)Cn1ccc2ccncc21 (stereo not drawn) [1-{2-methyl-4-[2-{2-[4-(methylsulfonyl)piperidin-1-yl]pyrimidin-5-yl}-4-(trifluoromethyl)phenyl]piperazin-1-yl}-2-(1H-pyrrolo[2,3-c]pyridin-1-yl)ethanone]"
4,14 nM,"O=C(Cn1c(=O)[nH]c2ccccc21)N1CCN(c2ccc(F)cc2-c2cnc(N3CCCC3)nc2)CC1 [1-[2-(4-{4-fluoro-2-[2-(pyrrolidin-1-yl)pyrimidin-5-yl]phenyl}piperazin-1-yl)-2-oxoethyl]-1,3-dihydro-2H-benzimidazol-2-one]"
5,9 nM,"Cc1cc(C)n(CC(=O)N2CCN(c3ccccc3-c3cnc(N4CCCC(C(N)=O)C4)nc3)CC2)n1 (stereo not drawn) [1-[5-(2-{4-[2-(3,5-Dimethyl-pyrazol-1-yl)-acetyl]-piperazin-1-yl}-phenyl)-pyrimidin-2-yl]-piperidine-3-carboxylic acid amide]"
6,8 nM,"Cc1cc(C)n(CC(=O)N2CCN(c3ccc(C(F)(F)F)cc3-c3cnc(N4CCOCC4)nc3)CC2)n1 [2-(3,5-Dimethyl-pyrazol-1-yl)-1-{4-[2-(2-morpholin-4-yl-pyrimidin-5-yl)-4-trifluoromethyl-phenyl]-piperazin-1-yl}-ethanone]"
7,9 nM,"CC1CN(c2ccc(C(F)(F)F)cc2-c2cnc(N3CCC(O)CC3)nc2)CCN1C(=O)Cn1c(=O)[nH]c2ccccc21 (stereo not drawn) [1-[2-(4-{2-[2-(4-hydroxypiperidin-1-yl)pyrimidin-5-yl]-4-(trifluoromethyl)phenyl}-2-methylpiperazin-1-yl)-2-oxoethyl]-1,3-dihydro-2H-benzimidazol-2-one]"
8,12 nM,"Cc1cc(C)n(CC(=O)N2CCN(c3ccccc3-c3cnc(N4CCC(C(C)(C)O)CC4)nc3)CC2)n1 [2-(3,5-Dimethyl-pyrazol-1-yl)-1-[4-(2-{2-[4-(1-hydroxy-1-methyl-ethyl)-piperidin-1-yl]-pyrimidin-5-yl}-phenyl)-piperazin-1-yl]-ethanone]"
9,47 nM,"Cc1cn(CC(=O)N2CCN(c3ccccc3-c3ccc(C#N)nc3)CC2)c(C)n1 [5-(2-{4-[2-(2,4-Dimethyl-imidazol-1-yl)-acetyl]-piperazin-1-yl}-phenyl)-pyridine-2-carbonitrile]"
10,11 nM,"CC1CN(c2ccccc2-c2cnc(N3CCC(O)CC3)nc2)CCN1C(=O)Cn1cnc2cccnc21 (stereo not drawn) [1-(4-{2-[2-(4-hydroxypiperidin-1-yl)pyrimidin-5-yl]phenyl}-2-methylpiperazin-1-yl)-2-(3H-imidazo[4,5-b]pyridin-3-yl)ethanone]"
11,11 nM,"COc1ncc(-c2cc(F)ccc2N2CCN(C(=O)Cn3ccc4cccnc43)CC2)cn1 [1-{4-[4-fluoro-2-(2-methoxypyrimidin-5-yl)phenyl]piperazin-1-yl}-2-(1H-pyrrolo[2,3-b]pyridin-1-yl)ethanone]"
12,157 nM,"Cc1cc(C)n(CC(=O)N2CCN(c3ccc(F)cc3-c3cnc(S(C)(=O)=O)nc3)CC2C)n1 (stereo not drawn) [2-(3,5-dimethyl-1H-pyrazol-1-yl)-1-(4-{4-fluoro-2-[2-(methylsulfonyl)pyrimidin-5-yl]phenyl}-2-methylpiperazin-1-yl)ethanone]"
13,16 nM,O=C(CN1CCCCC1=O)N1CCN(c2ccc(F)cc2-c2cnc(N3CCC(O)CC3)nc2)CC1 [1-[2-(4-{4-fluoro-2-[2-(4-hydroxypiperidin-1-yl)pyrimidin-5-yl]phenyl}piperazin-1-yl)-2-oxoethyl]piperidin-2-one]
14,100 nM,"Cc1cc(C)n(CC(=O)N2CCN(c3ccccc3-c3ccc(C#N)cc3)CC2)n1 [2′-{4-[2-(3,5-Dimethyl-pyrazol-1-yl)-acetyl]-piperazin-1-yl}-biphenyl-4-carbonitrile]"
15,24 nM,"O=C(Cn1cnc2cccnc21)N1CCN(c2ccc(F)cc2-c2cnc(N3CCOCC3)nc2)CC1 [1-(4-{4-fluoro-2-[2-(morpholin-4-yl)pyrimidin-5-yl]phenyl}piperazin-1-yl)-2-(3H-imidazo[4,5-b]pyridin-3-yl)ethanone]"
16,8 nM,"CC1CN(c2ccccc2-c2cnc(N3CCC(S(C)(=O)=O)CC3)nc2)CCN1C(=O)Cn1ccc2ccncc21 (stereo not drawn) [1-[2-methyl-4-(2-{2-[4-(methylsulfonyl)piperidin-1-yl]pyrimidin-5-yl}phenyl)piperazin-1-yl]-2-(1H-pyrrolo[2,3-c]pyridin-1-yl)ethanone]"
